{
  "source": "patent US9180160B2",
  "about": "“Complement inhibitors for treatment of injury from intracerebral hemorrhage” (The Trustees of the University of Pennsylvania, priority 2008, dated 2015)",
  "type_in_all_cases": "in vivo",
  "key": {"[1]": {"tested_on": "model of focal ischemic stroke", "assay": "Dose-response trial in a model of focal ischemic stroke", "conditions": "comparing 0.1, 0.5, 1 and 5 mg/kg"}, "[2]": {"tested_on": "C57BL/6J mice subjected to ICH", "assay": "Flow cytometric analysis of granulocyte infiltration and microglial activation after ICH", "conditions": "then twice daily, mean±SEM", "method": "(§1) Animal Preparation and Intracerebral Infusion. Adult male C57BL/6J mice weighing 23-30 g were used. Mice were randomized to receive intraperitoneal injection of either C3aRA (1 mg/kg) (SB290157, Calbiochem, Darmstadt, Germany) diluted in PBS and DMSO (1.16% v/v), or an equal volume of vehicle (PBS and DMSO, 1.16% DMSO v/v) either 45 minutes prior to ICH induction or 6 and 12 hours after induction of ICH, followed in both cohorts by twice daily doses for 72 hours. […] Sham animals were given PBS and DMSO (1.16% v/v) in the same manner.\nMice were anesthetized with a single intraperitoneal dose of ketamine (90 mg/kg) and xylazine (5 mg/kg). Next, the mice were placed in a stereotactic frame (ASI Instruments, Inc., Warren, Mich., USA) and subjected to ICH using autologous blood infusion as previously described (Rynkowski M A et al, 2008, Nat Protoc 3: 122-128), Briefly, a 1-mm burr hole was drilled 2.3 mm lateral to the midline and 0.2 mm anterior to the bregma. Thirty μL of autologous whole blood were drawn from the tail artery into a capillary tube. A 30-gauge needle was then advanced stereotactically through the burr hole into the right striatum (coordinates: 0.2 mm anterior, 2.3 mm lateral to the bregma, 3.5 mm ventral). Using a microinfusion pump (KDS220, KD Scientific Inc., Holliston, Mass., USA), 5 μL was delivered at a rate of 1.5 μL per minute. After a 7-minute period, an additional 25 μL was delivered at a constant rate of 1.5 μL per minute. After a period of 10 minutes, the needle was slowly removed, the burr hole was occluded with bone wax and the skin incision was closed with Nexaband® (Abbott Laboratories, North Chicago, Ill.). Sham animals received only needle insertion. […]\nPreparation of brains. Both cerebral hemispheres were analyzed for inflammatory cells using flow cytometry. […]\nFlow cytometric analysis. […] Flow cytometric analysis was carried out using a FACSCalibur (BD Biosciences, Franklin Lakes, N.J., USA), and the data were analyzed using FlowJo software (Tree Star, Ashland, Oreg., USA). […]"}, "[3]": {"tested_on": "C57BL/6J mice subjected to ICH", "assay": "Brain water content (edema) after ICH", "conditions": "for brain water content versus vehicle: 1 mg/kg i.p. first at 6 h and 12 h after ICH", "method": "as §1\nMice were anesthetized with a single intraperitoneal dose of ketamine (90 mg/kg) and xylazine (5 mg/kg). Next, the mice were placed in a stereotactic frame (ASI Instruments, Inc., Warren, Mich., USA) and subjected to ICH using autologous blood infusion as previously described (Rynkowski M A et al, 2008, Nat Protoc 3: 122-128), Briefly, a 1-mm burr hole was drilled 2.3 mm lateral to the midline and 0.2 mm anterior to the bregma. Thirty μL of autologous whole blood were drawn from the tail artery into a capillary tube. A 30-gauge needle was then advanced stereotactically through the burr hole into the right striatum (coordinates: 0.2 mm anterior, 2.3 mm lateral to the bregma, 3.5 mm ventral). Using a microinfusion pump (KDS220, KD Scientific Inc., Holliston, Mass., USA), 5 μL was delivered at a rate of 1.5 μL per minute. After a 7-minute period, an additional 25 μL was delivered at a constant rate of 1.5 μL per minute. After a period of 10 minutes, the needle was slowly removed, the burr hole was occluded with bone wax and the skin incision was closed with Nexaband® (Abbott Laboratories, North Chicago, Ill.). Sham animals received only needle insertion. Rectal temperature was maintained at 37.0° C. using a feedback-controlled heating lamp, and the animals recovered in a temperature-controlled incubator for 45 minutes post-procedure.\nDetermination of brain water content. Mice were reanesthetized with Ketamine (80-100 mg/kg i.p.), Xylazine (5-10 mg/kg i.p.) and sacrificed 3 days post-hemorrhage to determine brain water content (sham vehicle n=8 Pre-C3aRA n=8, Post-C3aRA n=11). Brains were removed immediately en bloc and five 2-mm coronal slices were obtained beginning 2-mm from the frontal pole. The brain slices were divided into two hemispheres along the midline. The cortex of each hemisphere was then carefully dissected from the basal ganglia. The cerebellum was retained as a control. Each of the five sections was then weighed on an electronic analytical balance (Model AG 104, Mettler-Toledo, Inc., Columbus, Ohio, USA) to determine the wet weight. The sections were then placed onto pre-weighed cover slips and dried overnight in a vacuum oven for 24 hours to obtain the dry weight. Brain water content (%) was calculated as: ((wet weight-dry weight)/wet weight)×100.\nAnimal Preparation and Intracerebral Infusion. Adult male C57BL/6J mice weighing 23-30 g were randomized to receive intraperitoneal injection of either C3aRA (1 mg/kg) (SB290157, Calbiochem, Darmstadt, Germany), C5aRA (1 mg/kg), combined C3aRA and C5aRA or an equal volume of DMSO. Each drug was diluted in PBS (1.16% v/v) and given 6 and 12 hours after ICH induction, followed by twice daily doses for 72 hours. The sham group of animals was given PBS and DMSO (1.16% v/v) in the same manner. Mice were anesthetized with a single intraperitoneal dose of ketamine (90 mg/kg) and xylazine (5 mg/kg). […]"}, "[4]": {"tested_on": "C57BL/6J mice subjected to ICH", "assay": "Histopathology, hematoma (lesion) volume after ICH", "conditions": "1 mg/kg i.p. 45 minutes prior to ICH, then twice daily; 72 hours after ICH; mean±SEM", "method": "as §1\nMice were anesthetized with a single intraperitoneal dose of ketamine (90 mg/kg) and xylazine (5 mg/kg). Next, the mice were placed in a stereotactic frame (ASI Instruments, Inc., Warren, Mich., USA) and subjected to ICH using autologous blood infusion as previously described (Rynkowski M A et al, 2008, Nat Protoc 3: 122-128), Briefly, a 1-mm burr hole was drilled 2.3 mm lateral to the midline and 0.2 mm anterior to the bregma. Thirty μL of autologous whole blood were drawn from the tail artery into a capillary tube. […]\nHistopathology and determination of lesion volume. […] Striatal lesion volume was determined by digitizing serial coronal sections ([…]) to span the entire hematoma. […] Volume of the lesion (mm^3) was then determined by summation of the lesion area in each coronal section and integrating over the section depth of 0.5 mm."}, "[5]": {"conditions": "1 mg/kg i.p. 45 minutes prior to ICH, 72 hours after ICH"}, "[6]": {"conditions": "1 mg/kg i.p. 45 minutes prior to ICH, then twice daily, 72 hours after ICH, mean±SEM"}, "[7]": {"conditions": "then twice daily, 72 hours after ICH"}},
  "note": "Values joined by “and” are separate entries in the source; they are usually repeats but may differ in a detail not shown here. Identical values can stand only once. “Also recorded” adds a separate entry of the source.",
  "data": [
    {"molecule": "NC(N)=NCCC[C@H](NC(=O)COCC(c1ccccc1)c1ccccc1)C(=O)O", "note": "[C3aRA]", "values": [
      {"measurement": "most effective dose", "setting": "[1]", "value": 1, "unit": "mg/kg"},
      {"measurement": "activated microglia, hemorrhagic/non-hemorrhagic hemisphere ratio", "setting": "[2]; [5]", "value": "3.67±0.45"},
      {"measurement": "granulocytes, hemorrhagic/non-hemorrhagic hemisphere ratio", "setting": "[2]; [5]", "value": "3.21±0.52"},
      {"measurement": "brain water content, ipsilateral basal ganglia", "setting": "[3]; [6]", "value": "77.43±0.43", "unit": "%"},
      {"measurement": "brain water content, ipsilateral cortex", "setting": "[3]; [6]", "value": "77.56±0.26% and 77.57±0.26%"},
      {"measurement": "brain water content versus vehicle", "setting": "[3]; [7]", "value": "mildly decreased brain water content; also recorded: Trend towards decreased edema"},
      {"measurement": "water content in the contralateral cortex, the basal ganglia and cerebellum", "setting": "[3]; pre-ICH dosing 1 mg/kg i.p., 72 hours, versus vehicle-treated and sham", "value": "not different"},
      {"measurement": "mean hematoma volume", "setting": "[4]", "value": "12.17±1.33", "unit": "mm^3"}
    ]},
    {"molecule": "Acetyl-Phe-[Orn-Pro-D-cyclohexylalanine-Trp-Arg] [C5aRA]", "values": [
      {"measurement": "granulocyte infiltration, hemorrhagic/non-hemorrhagic ratio", "setting": "[2]; 1 mg/kg i.p. first at 6 h and 12 h after ICH, 3 days after ICH", "value": "1.7793±0.36"},
      {"measurement": "brain water content versus vehicle", "setting": "[3]; [7]", "value": "mildly decreased brain water content"}
    ]}
  ]
}
